{"source": "patent US20210238225A1", "about": "“PEPTIDOMIMETIC INHIBITORS OF THE PEPTIDYL-PROLYL CIS/TRANS ISOMERASE (PIN1)” (DANA-FARBER CANCER INSTITUTE, INC., priority 2018, published 2021)", "key": {"Pin1 [1]": {"target": "T1, Pin1 (Homo sapiens, UniProt Q13526)", "T1 sequence (Q13526 whole entry)": "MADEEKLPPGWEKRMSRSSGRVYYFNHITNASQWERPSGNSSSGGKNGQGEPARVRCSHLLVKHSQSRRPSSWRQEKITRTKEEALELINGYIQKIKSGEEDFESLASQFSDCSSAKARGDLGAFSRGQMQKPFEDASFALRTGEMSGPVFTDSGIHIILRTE", "test": "Lysate target engagement (pull down with biotinylated probes; competition assay)", "assay_type": "binding", "set-up": "endogenous in cells; host or cells: MDA-MB-231", "settings": "for Lysate Target Engagement?: TNBC-MDA-MB-231 lysate, biotin/dtb probes: pull down, others: competition, concentration under E5; for Lysate Target Engagement? concentration stated for the engagement or pull down: read with the E4 line of the same compound (complete, partial, probe pull down)", "protocol": "(§1) TNBC-MDA-MB-231 cells were lysed in lysis buffer (50 mM Hepes pH 7.5, 150 mM NaCl, 1 mM ethylenediaminetetraacetic acid (EDTA), 10% v/v glycerol, 0.5% v/v NP-40, protease inhibitors (Roche)). After clarifying by centrifugation (14,000 rpm for 15 min at 4° C.), lysates were incubated with the indicated concentrations of candidate compound for 1 hour at 4° C. (500 μg of protein per sample, as determined by BCA). Lysates were then incubated with streptavidin agarose resin (30 μL of 1:1 beads: lysis buffer slurry) (Thermo Scientific™, cat. #20349) for 2 hours at 4° C. Beads were washed 4 times with 500 μL of washing buffer (50 mM Hepes, pH 7.5, 10 mM NaCl, 1 mM EDTA, 10% glycerol), then pelleted by centrifugation and dried. The beads were then boiled at 95° C. for 5 minutes in 30 μL of 2× LDS+10% β-mercaptoethanol. Lysates were probed for specified proteins by western blotting using the Bolt system (Life Technologies™).\nas §1, with “mM EDTA,” for “mM ethylenediaminetetraacetic acid (EDTA),”, “by centrifugation,” for “by centrifugation (14,000 rpm for 15 min at 4° C.),”, “were pre-incubated” for “were incubated”, “of” for “of candidate”, “compound 18 overnight” for “compound for 1 hour”, “BCA). The lysates were then incubated with 1 μM of compound 2c (desthiobiotin probe) for 1 hour at 4° C.” for “BCA).”"}, "Pin1 [2]": {"target": "T1, Pin1", "test": "Cellular target engagement, live cell biotin competition assay in TNBC MDA-MB-231 cells", "assay_type": "cell-based", "set-up": "endogenous in cells; host or cells: MDA-MB-231", "settings": "TNBC MDA-MB-231 cells; for Cellular Target Engagement?: 5 hours treatment, concentration under E7", "protocol": "TNBC MDA-MB-231 cells were plated in 10 cm plates with 2.5 million cells per plate in 6 mL of media. The day after plating, cells were treated with the indicated concentrations of compound 18 for 5 hours. The cells were washed 2× with 0.9% NaCl (1 mL per 10 cm plate), and collected by scraping with a cell scraper. Cells were lysed in lysis buffer (50 mM Hepes pH 7.5, 150 mM NaCl, 1 mM EDTA, 10% v/v glycerol, 0.5% v/v […], protease inhibitors (Roche)) using 210 μL of cell lysis buffer per 10 cm plate of cells. After clarifying by centrifugation (14,000 rpm for 15 min at 4° C.), 5 μL of each lysate sample was combined with 5 μL of 2× LDS+10% β-mercaptoethanol, boiled for 5 minutes, and set aside for the input loading control (later to be loaded directly in the gel). Then, 200 μL of each lysate was then incubated with 1 μM of compound 2-32 (biotin probe compound) for 1 hour at 4° C. Lysates were then incubated with streptavidin agarose resin (30 μL of 1:1 beads: lysis buffer slurry) (Thermo Scientific™, cat. #20349) for 2 hours at 4° C. Beads were washed 4 times with 500 μL of washing buffer (50 mM Hepes, pH7.5, 10 mM NaCl, 1 mM EDTA, 10% glycerol), then pelleted by centrifugation and dried. The beads were then boiled at 95° C. for 5 minutes in 30 μL of 2× LDS+10% β-mercaptoethanol. Lysates were probed for specified proteins by western blotting using the Bolt system (Life Technologies™)."}, "Pin1 (GST-Pin1)": {"target": "Pin1 (GST-Pin1) (Homo sapiens, UniProt Q13526)", "sequence (Q13526 whole entry)": "as above", "test": "Fluorescence polarization (FP) assay, binding to Pin1", "settings": "competition with fluorescein-labeled peptide probe; 12 hours pre-incubation at 4° C.; Kenakin Ki equation; read-out: Ki, μM (FP Assay)"}, "Pin1 Cys 113": {"target": "Pin1 Cys 113 (Homo sapiens, UniProt Q13526)", "sequence (Q13526 whole entry)": "as above", "test": "Covalent labeling (intact MS)", "assay_type": "binding", "settings": "purified Pin1 with 5 μM inhibitor, 0-3 hr", "protocol": "5 μg of purified Pin1 protein in 50 μL of 20 mM HEPES pH 7.5 and 75 mM NaCl was incubated with 5 μM of respective Pin1 inhibitors for 0-3 hr. A Shimadzu XR HPLC was used to inject the entire sample onto a self-packed reverse-phase column (1/32 in outer diameter×500 μm inner diameter, 5 cm of POROS 50R2 resin). After desalting, protein was eluted with an HPLC gradient (0%-100% B in 4 min, A=0.2 M acetic acid in water, B=0.2 M acetic acid in acetonitrile, flow rate=10 μl/min) into a LTQ XL mass spectrometer (Thermo Fisher Scientific, San Jose, Calif., USA). LTQ XL MS spectra were acquired in centroid mode using the electron multipliers for ion detection. Mass spectra were deconvoluted using MagTran1.03b2 software (Zhang and Marshall, J. Am. Soc. Mass Spectrom. 9:225-233 (1998))."}}, "note": "Non-standard residues stand in square brackets, D forms with d. Residues, ends and D or L forms follow the SMILES beside them. *: point of attachment. Phe(4-F) = N[C@@H](Cc1ccc(F)cc1)C(=O)O; 2Nal = N[C@@H](Cc1ccc2ccccc2c1)C(=O)O; NH(4-Me-benzyl) = Cc1ccc(CN*)cc1; NMeF = CN[C@@H](Cc1ccccc1)C(=O)O; Cit = NC(=O)NCCC[C@H](N)C(=O)O; Pip = O=C(O)[C@@H]1CCCCN1; Piperidide = C1CCN(*)CC1; X3 = C=CS(=O)(=O)*; ClAc = O=C(CCl)*; NHcPr = C1CC1N*", "data": [{"smiles": "COC(=O)CC[C@H](NC(=O)CCl)C(=O)N1CCCC[C@H]1C(=O)N[C@@H](Cc1ccc2ccccc2c1)C(=O)N[C@@H](CCCNC(N)=O)C(N)=O", "note": "[Compound 2-11, Methyl (S)-5-((S)-2-(((S)-1-(((S)-1-amino-1-oxo-5-ureidopentan-2-yl)amino)-3-(naphthalen-2-yl)-1-oxopropan-2-yl)carbamoyl)piperidin-1-yl)-4-(2-chloroacetamido)-5-oxopentanoate] (ClAc-E(OMe)[Pip][2Nal][Cit]-NH2)", "values": [{"measurement": "Lysate Target Engagement?", "setting": "Pin1 [1]", "value": "Yes-complete"}, {"measurement": "Lysate Target Engagement? concentration stated for the engagement or pull down", "setting": "Pin1 [1]", "value": "by 10 μM"}, {"measurement": "Cellular Target Engagement?", "setting": "Pin1 [2]", "value": "No"}, {"measurement": "Ki", "setting": "Pin1 (GST-Pin1)", "value": 0.06, "unit": "µM"}]}, {"smiles": "NC(=O)[C@H](Cc1ccc(F)cc1)NC(=O)[C@H](Cc1c[nH]c2ccccc12)NC(=O)[C@@H]1CCCCN1C(=O)[C@H](CCC(=O)O)NC(=O)CCl", "note": "[Compound 2-27, (S)-5-((S)-2-(((S)-1-(((S)-1-Amino-3-(4-fluorophenyl)-1-oxopropan-2-yl)amino)-3-(1H-indol-3-yl)-1-oxopropan-2-yl)carbamoyl)piperidin-1-yl)-4-(2-chloroacetamido)-5-oxopentanoic acid] (ClAc-E[Pip]W[Phe(4-F)]-NH2)", "values": [{"measurement": "Lysate Target Engagement?", "setting": "Pin1 [1]", "value": "Yes-partial"}, {"measurement": "Lysate Target Engagement? concentration stated for the engagement or pull down", "setting": "Pin1 [1]", "value": "at 10 μM"}, {"measurement": "Cellular Target Engagement?", "setting": "Pin1 [2]", "value": "No"}, {"measurement": "Ki", "setting": "Pin1 (GST-Pin1)", "value": 0.075, "unit": "µM"}]}, {"smiles": "NC(=O)NCCC[C@H](NC(=O)[C@H](Cc1c[nH]c2ccccc12)NC(=O)[C@@H]1CCCCN1C(=O)[C@H](CCC(=O)O)NC(=O)CCl)C(N)=O", "note": "[Compound 2b-18, (S)-5-((S)-2-(((S)-1-(((S)-1-Amino-1-oxo-5-ureidopentan-2-yl)amino)-3-(1H-indol-3-yl)-1-oxopropan-2-yl)carbamoyl)piperidin-1-yl)-4-(2-chloroacetamido)-5-oxopentanoic acid] (ClAc-E[Pip]W[Cit]-NH2)", "values": [{"measurement": "Lysate Target Engagement?", "setting": "Pin1 [1]", "value": "Yes-Complete"}, {"measurement": "Lysate Target Engagement? concentration stated for the engagement or pull down", "setting": "Pin1 [1]", "value": "at 5 μM"}, {"measurement": "Cellular Target Engagement?", "setting": "Pin1 [2]", "value": "No"}]}, {"smiles": "C=CS(=O)(=O)N[C@@H](CCC(=O)O)C(=O)N1CCCC[C@H]1C(=O)N[C@@H](Cc1ccc2ccccc2c1)C(=O)N[C@@H](CCCNC(N)=O)C(N)=O", "note": "[Compound 4, (S)-5-((S)-2-(((S)-1-(((S)-1-Amino-1-oxo-5-ureidopentan-2-yl)amino)-3-(naphthalen-2-yl)-1-oxopropan-2-yl)carbamoyl)piperidin-1-yl)-5-oxo-4(vinylsulfonamido)pentanoic acid] (X3-E[Pip][2Nal][Cit]-NH2)", "values": [{"measurement": "Lysate Target Engagement?", "setting": "Pin1 [1]", "value": "No"}, {"measurement": "Covalent? (In tact MS), % labeling", "setting": "Pin1 Cys 113", "value": "Yes (93%"}, {"measurement": "Ki", "setting": "Pin1 (GST-Pin1)", "value": 0.35, "unit": "µM"}]}, {"smiles": "COC(=O)CC[C@H](NC(=O)CCl)C(=O)N1CCCC[C@H]1C(=O)N[C@@H](Cc1c[nH]c2ccccc12)C(=O)N[C@@H](Cc1ccc(O)cc1)C(=O)NCc1ccc(C)cc1", "note": "[Compound 11-1, Methyl (S)-4-(2-chloroacetamido)-5-((S)-2-(((S)-1-(((S)-3-(4-hydroxyphenyl)-1-((4-methyl-benzyl)amino)-1-oxopropan-2-yl)amino)-3-(1H-indol-3-yl)-1-oxopropan-2-yl)carbamoyl)piperidin-1-yl)-5-oxopentanoate]", "values": [{"measurement": "Lysate Target Engagement?", "setting": "Pin1 [1]", "value": "No"}, {"measurement": "Cellular Target Engagement?", "setting": "Pin1 [2]", "value": "No"}, {"measurement": "Ki", "setting": "Pin1 (GST-Pin1)", "value": 0.176, "unit": "µM"}]}, {"smiles": "COC(=O)CC[C@H](NC(=O)CCl)C(=O)N1CCCC[C@H]1C(=O)N[C@@H](Cc1c[nH]c2ccccc12)C(=O)N[C@@H](Cc1c[nH]c2ccccc12)C(=O)NCc1ccc(C)cc1", "note": "[Compound 11-2, Methyl (S)-5-((S)-2-(((S)-1-(((S)-3-(1H-indol-3-yl)-1-((4-methylbenzyl)amino)-1-oxopropan-2-yl)amino)-3-(1H-indol-3-yl)-1-oxopropan-2-yl)carbamoyl)piperidin-1-yl)-4-(2-chloroacetamido)-5-oxopentanoate] (ClAc-E(OMe)[Pip]WW-{NH(4-Me-benzyl)})", "values": [{"measurement": "Lysate Target Engagement?", "setting": "Pin1 [1]", "value": "No"}, {"measurement": "Cellular Target Engagement?", "setting": "Pin1 [2]", "value": "No"}, {"measurement": "Ki", "setting": "Pin1 (GST-Pin1)", "value": "> 10", "unit": "µM"}]}, {"smiles": "Cc1ccc(CNC(=O)[C@H](CCCNC(N)=O)NC(=O)[C@H](Cc2c[nH]c3ccccc23)NC(=O)[C@@H]2CCCCN2C(=O)[C@H](Cc2ccccc2)NC(=O)CCl)cc1", "note": "[Compound 11-23, (S)—N—((S)-3-(1H-indol-3-yl)-1-(((S)-1-((4-methylbenzyl)amino)-1-oxo-5-ureidopentan-2-yl)amino)-1-oxopropan-2-yl)-1-((2-chloroacetyl)-L-phenylalanyl)piperidine-2-carboxamide] (ClAc-F[Pip]W[Cit]-{NH(4-Me-benzyl)})", "values": [{"measurement": "Covalent? (In tact MS), % labeling", "setting": "Pin1 Cys 113", "value": "Yes (100%"}, {"measurement": "Cellular Target Engagement?", "setting": "Pin1 [2]", "value": "Yes-Complete"}, {"measurement": "Cellular Target Engagement? concentration stated for complete engagement", "setting": "Pin1 [2]; read with the E6 line", "value": "at 10 μM"}, {"measurement": "Ki", "setting": "Pin1 (GST-Pin1)", "value": 0.004, "unit": "µM"}]}, {"smiles": "NC(=O)NCCC[C@H](NC(=O)[C@H](Cc1c[nH]c2ccccc12)NC(=O)[C@@H]1CCCCN1C(=O)[C@H](Cc1ccccc1)NC(=O)CCl)C(=O)NC1CC1", "note": "[Compound 11-38, (S)-1-((2-chloroacetyl)-L-phenylalanyl)-N—((S)-1-(((S)-1-(cyclopropylamino)-1-oxo-5-ureidopentan-2-yl)amino)-3-(1H-indol-3-yl)-1-oxopropan-2-yl)piperidine-2-carboxamide] (ClAc-F[Pip]W[Cit]-NHcPr)", "values": [{"measurement": "Cellular Target Engagement?", "setting": "Pin1 [2]", "value": "No"}, {"measurement": "Ki", "setting": "Pin1 (GST-Pin1)", "value": 0.018, "unit": "µM"}]}, {"smiles": "NC(=O)NCCC[C@H](NC(=O)[C@H](Cc1c[nH]c2ccccc12)NC(=O)[C@@H]1CCCCN1C(=O)[C@H](Cc1ccccc1)NC(=O)CCl)C(=O)N1CCCCC1", "note": "[Compound 11-39, (S)—N—((S)-3-(1H-indol-3-yl)-1-oxo-1-(((S)-1-oxo-1-(piperidin-1-yl)-5-ureidopentan-2-yl)amino)propan-2-yl)-1-((2-chloroacetyl)-L-phenylalanyl)piperidine-2-carboxamide] (ClAc-F[Pip]W[Cit]-Piperidide)", "values": [{"measurement": "Cellular Target Engagement?", "setting": "Pin1 [2]", "value": "No"}, {"measurement": "Ki", "setting": "Pin1 (GST-Pin1)", "value": 0.017, "unit": "µM"}]}, {"smiles": "CCOC(=O)[C@H](CCCNC(N)=O)NC(=O)[C@H](Cc1c[nH]c2ccccc12)NC(=O)[C@@H]1CCCCN1C(=O)[C@H](Cc1ccccc1)N(C)C(C)=O", "note": "[Compound 18-1, Ethyl (S)-2-((S)-2-((S)-1-(N-acetyl-N-methyl-L-phenylalanyl)piperidine-2-carboxamido)-3-(1H-indol-3-yl)propanamido)-5-ureidopentanoate] (Ac-[NMeF][Pip]W[Cit]-OEt)", "values": [{"measurement": "Cellular Target Engagement?", "setting": "Pin1 [2]", "value": "No"}, {"measurement": "Ki", "setting": "Pin1 (GST-Pin1)", "value": 1.9, "unit": "µM"}]}]}
